Reference: ChEMBL document CHEMBL6121038, “Design and Synthesis of Hederagenin Derivatives for the Treatment of Sepsis by Targeting TAK1 and Regulating the TAK1-NF-κB/MAPK Signaling” (J Med Chem, 2025)
Active and inactive are the calls of the source. No cut-off for these calls is given here.

Experiments:
[1] = Cmax in BALB/c mouse at 10 mg/kg, po measured upto 24 hrs by LC/MS-MS analysis; format: ADME, organism-based; details: in vivo
[2] = Tmax in BALB/c mouse at 10 mg/kg, po measured upto 24 hrs by LC/MS-MS analysis; format: ADME, organism-based; details: in vivo
[3] = Half life in BALB/c mouse at 10 mg/kg, po measured upto 24 hrs by LC/MS-MS analysis; format: ADME, organism-based; details: in vivo
[4] = AUC (0 to t) in BALB/c mouse at 10 mg/kg, po measured upto 24 hrs by LC/MS-MS analysis; format: ADME, organism-based; details: in vivo
[5] = AUC (0 to infinity) in BALB/c mouse at 10 mg/kg, po measured upto 24 hrs by LC/MS-MS analysis; format: ADME, organism-based; details: in vivo
RAW264.7 [6] = experiment: Cytotoxicity against mouse RAW264.7 cells assessed as cell viability at 40 uM measured after 24 hrs by MTT assay; format: toxicity, cell-based; details: raw264.7, 24 h
RAW264.7 [7] = experiment: Antiinflammatory activity in LPS-induced mouse RAW264.7 cells assessed as inhibition of TNF-alpha level at 20 uM incubated for 24 hrs by ELISA method relative to control; format: functional
RAW264.7 [8] = experiment: Antiinflammatory activity in LPS-induced mouse RAW264.7 cells assessed as inhibition of IL-6 level at 20 uM incubated for 24 hrs by ELISA method relative to control; format: functional
[9] = Toxicity in BALB/c mouse assessed as histopathological lesions in liver at 10 mg/kg, po by H and E staining based analysis; format: organism-based; details: in vivo
[10] = Toxicity in BALB/c mouse assessed as histopathological lesions in kidney at 10 mg/kg, po by H and E staining based analysis; format: organism-based; details: in vivo
[11] = Toxicity in BALB/c mouse assessed as change in AST level in serum at 10 mg/kg, po; format: organism-based; details: in vivo
[12] = Toxicity in BALB/c mouse assessed as change in ALT level in serum at 10 mg/kg, po; format: organism-based; details: in vivo
[13] = Toxicity in BALB/c mouse assessed as change in SOD level in serum at 10 mg/kg, po; format: organism-based; details: in vivo
[14] = Toxicity in BALB/c mouse assessed as change in BUN level in serum at 10 mg/kg, po; format: organism-based; details: in vivo
[15] = Toxicity in BALB/c mouse assessed as change in SCr level in serum at 10 mg/kg, po; format: organism-based; details: in vivo
RAW264.7 [16] = experiment: Antiinflammatory activity in LPS-induced mouse RAW264.7 cells assessed as reduction in TNF-alpha release incubated for 24 hrs by ELISA method; format: functional, cell-based; details: dose 2.5-10 µM
RAW264.7 [17] = experiment: Antiinflammatory activity in LPS-induced mouse RAW264.7 cells assessed as reduction in IL-6 release incubated for 24 hrs by ELISA method; format: functional, cell-based; details: dose 2.5-10 µM
[18] = Toxicity in BALB/c mouse assessed as liver lesions at 2.5 to 10 mg/kg, iv administered for 2 hrs and measured after 12 hrs by H and E staining based assay; format: organism-based; details: in vivo, 14 h, dose 2.5-10 mg/kg
[19] = Toxicity in BALB/c mouse assessed as lung lesions at 2.5 to 10 mg/kg, iv administered for 2 hrs and measured after 12 hrs by H and E staining based assay; format: organism-based; details: in vivo, 14 h, dose 2.5-10 mg/kg
[20] = Toxicity in BALB/c mouse assessed as kidney lesions at 2.5 to 10 mg/kg, iv administered for 2 hrs and measured after 12 hrs by H and E staining based assay; format: organism-based; details: in vivo, 14 h, dose 2.5-10 mg/kg
Mus musculus [21] = experiment: Antiinflammatory activity in LPS-induced BALB/c sepsis mouse model assessed as decrease in serum AST level at 2.5 to 10 mg/kg, iv administered for 2 hrs and measured after 12 hrs; format: functional, organism-based; details: dose 2.5-10 mg/kg, time 14.0 hrs
Mus musculus [22] = experiment: Antiinflammatory activity in LPS-induced BALB/c sepsis mouse model assessed as decrease in serum ALT level at 2.5 to 10 mg/kg, iv administered for 2 hrs and measured after 12 hrs; format: functional, organism-based; details: dose 2.5-10 mg/kg, time 14.0 hrs
Mus musculus [23] = experiment: Antiinflammatory activity in LPS-induced BALB/c sepsis mouse model assessed as decrease in serum SOD level at 2.5 to 10 mg/kg, iv administered for 2 hrs and measured after 12 hrs; format: functional, organism-based; details: dose 2.5-10 mg/kg, time 14.0 hrs
Mus musculus [24] = experiment: Antiinflammatory activity in LPS-induced BALB/c sepsis mouse model assessed as decrease in serum MDA level at 2.5 to 10 mg/kg, iv administered for 2 hrs and measured after 12 hrs; format: functional, organism-based; details: dose 2.5-10 mg/kg, time 14.0 hrs
Mus musculus [25] = experiment: Antiinflammatory activity in LPS-induced BALB/c sepsis mouse model assessed as decrease in serum BUN level at 2.5 to 10 mg/kg, iv administered for 2 hrs and measured after 12 hrs; format: functional, organism-based; details: dose 2.5-10 mg/kg, time 14.0 hrs
Mus musculus [26] = experiment: Antiinflammatory activity in LPS-induced BALB/c sepsis mouse model assessed as decrease in serum SCr level at 2.5 to 10 mg/kg, iv administered for 2 hrs and measured after 12 hrs; format: functional, organism-based; details: dose 2.5-10 mg/kg, time 14.0 hrs
Mus musculus [27] = experiment: Antiinflammatory activity in LPS-induced BALB/c sepsis mouse model assessed as reduction in IL-6 level in serum at 2.5 to 10 mg/kg, iv administered for 2 hrs and measured after 12 hrs by ELISA analysis; format: functional, organism-based; details: dose 2.5-10 mg/kg, time 14.0 hrs
Mus musculus [28] = experiment: Antiinflammatory activity in LPS-induced BALB/c sepsis mouse model assessed as reduction in TNF-alpha level in serum at 2.5 to 10 mg/kg, iv administered for 2 hrs and measured after 12 hrs by ELISA analysis; format: functional, organism-based; details: dose 2.5-10 mg/kg, time 14.0 hrs
[29] = Toxicity in BALB/c mouse assessed as increase in survival rate at 10 mg/kg, po administered for 3 days; format: organism-based; details: in vivo, 72 h, time 3 day
[30] = Toxicity in BALB/c mouse assessed as change in body weight at 10 mg/kg, po administered for 3 days; format: organism-based; details: in vivo, 72 h, time 3 day
RAW264.7 [31] = experiment: Antiinflammatory activity in LPS-induced mouse RAW264.7 cells assessed as reduction in TAK1-TAB1 complex formation incubated for 2 hrs vy immunoprecipitation analysis; format: functional, cell-based
[32] = Toxicity in BALB/c mouse assessed as pathological damage in liver at 10 mg/kg, po administered for 2 hrs by H and E staining based analysis; format: organism-based; details: in vivo
[33] = Toxicity in BALB/c mouse assessed as pathological damage in heart at 10 mg/kg, po administered for 2 hrs by H and E staining based analysis; format: organism-based; details: in vivo
[34] = Toxicity in BALB/c mouse assessed as pathological damage in spleen at 10 mg/kg, po administered for 2 hrs by H and E staining based analysis; format: organism-based; details: in vivo
[35] = Toxicity in BALB/c mouse assessed as pathological damage in lung at 10 mg/kg, po administered for 2 hrs by H and E staining based analysis; format: organism-based; details: in vivo
[36] = Toxicity in BALB/c mouse assessed as pathological damage in kidney at 10 mg/kg, po administered for 2 hrs by H and E staining based analysis; format: organism-based; details: in vivo
[37] = Toxicity in BALB/c mouse assessed as animal survival at 750 mg/kg, po administered for 2 hrs; format: organism-based; details: in vivo
[38] = Toxicity in BALB/c mouse assessed as animal survival at 500 mg/kg, po administered for 2 hrs; format: organism-based; details: in vivo
[39] = (§1) Toxicity in BALB/c mouse assessed as histopathological lesions in lung at 10 mg/kg, po in presence of 4a-benzyl-12-ethyl-(6aS,6bR,9R,13aR)-9-(hydroxymethyl)-2,2,6a,6b,9,13a-hexamethyl-1,3,4,5,6,6a,6b,7,8,8a,9,13,13a,13b,14,15b-hexadecahydropiceno[2,3-d]isoxazole-4a,12(2H)-dicarboxylate by H and E staining based analysis; format: organism-based; details: in vivo
[40] = as §1, with “liver” for “lung”; format: organism-based; details: in vivo
[41] = as §1, with “kidney” for “lung”; format: organism-based; details: in vivo
[42] = Toxicity in BALB/c mouse assessed as change in MDA level in serum at 10 mg/kg, po; format: organism-based; details: in vivo
[43] = Toxicity in BALB/c mouse assessed as histopathological lesions in lung at 10 mg/kg, po by H and E staining based analysis; format: organism-based; details: in vivo

For `CC1(C)CC[C@]2(C(=O)OCc3ccccc3)CC[C@]3(C)C(=CC[C@@H]4[C@@]5(C)Cc6c(C(=O)O)noc6[C@@](C)(COC(=O)CCC(=O)N6CCOCC6)[C@@H]5CC[C@]43C)[C@@H]2C1`, the Cmax [1] was 209 ng/mL, the Tmax [2] was 1.5 h and the half-life [3] was 4.49 h. The AUC(0-t) at 24 h [4] was 1290 ng·h/mL and the AUC(0-inf) [5] was 2020 ng·h/mL.
In the case of `CCOC(=O)c1noc2c1C[C@@]1(C)[C@@H](CC[C@]3(C)[C@@H]1CC=C1[C@@H]4CC(C)(C)CC[C@]4(C(=O)OCc4ccccc4)CC[C@]13C)[C@]2(C)CO`, the Activity (RAW264.7 [6]) was “Non-toxic”, the inhibition at 20 µM (RAW264.7 [7]) was 52.4% and the inhibition at 20 µM (RAW264.7 [8]) was 32.5%. The Cmax [1] was 3930 ng/mL, the Tmax [2] was 4 h and the half-life [3] was 4.85 h. The AUC(0-t) at 24 h [4] was 22700 ng·h/mL, the AUC(0-inf) [5] was 23400 ng·h/mL and the Activity [9] was “Non-toxic”. For the same compound, the Activity [10] was “Non-toxic”, the Activity [11] was “Non-toxic” and the Activity [12] was “Non-toxic”. The Activity [13] was “Non-toxic”, the Activity [14] was “Non-toxic” and the Activity [15] was “Non-toxic”.
In the case of `CCOC(=O)c1noc2c1C[C@@]1(C)[C@@H](CC[C@]3(C)[C@@H]1CC=C1[C@@H]4CC(C)(C)CC[C@]4(C(=O)OCc4ccccc4)CC[C@]13C)[C@]2(C)COC(=O)CCC(=O)N1CCOCC1`, the Activity (RAW264.7 [6]) was “Non-toxic”, the inhibition at 20 µM (RAW264.7 [7]) was 80% and the inhibition at 20 µM (RAW264.7 [8]) was 69.6%. The Activity (RAW264.7 [16]) was “Dose-dependent-effect”, the Activity (RAW264.7 [17]) was “Dose-dependent-effect” and the Activity [18] was “Non-toxic”. For the same compound, the Activity [19] was “Non-toxic”, the Activity [20] was “Non-toxic” and the Activity (Mus musculus [21]) was “Active”. The Activity (Mus musculus [22]) was “Active”, the Activity (Mus musculus [23]) was “Active” and the Activity (Mus musculus [24]) was “Active”. The Activity (Mus musculus [25]) was “Active”, the Activity (Mus musculus [26]) was “Active” and the Activity (Mus musculus [27]) was “Active”. The Activity (Mus musculus [28]) was “Active”, the Activity [29] was “Non-toxic” and the Activity [30] was “Non-toxic”. For the same compound, the Activity (RAW264.7 [31]) was “Active”, the Activity [32] was “Non-toxic” and the Activity [33] was “Non-toxic”. The Activity [34] was “Non-toxic”, the Activity [35] was “Non-toxic” and the Activity [36] was “Non-toxic”. The Activity [37] was “Toxic”, the Activity [38] was “Non-toxic” and the Cmax [1] was 2760 ng/mL. For the same compound, the Tmax [2] was 2.25 h, the half-life [3] was 5.42 h and the AUC(0-t) at 24 h [4] was 9620 ng·h/mL. The AUC(0-inf) [5] was 9970 ng·h/mL, the Activity [39] was “Non-toxic” and the Activity [40] was “Non-toxic”. The Activity [41] was “Non-toxic” and the Activity [42] was “Non-toxic”.
With `CC1(C)CC[C@]2(C(=O)OCc3ccccc3)CC[C@]3(C)C(=CC[C@@H]4[C@@]5(C)Cc6c(C(=O)O)noc6[C@@](C)(CO)[C@@H]5CC[C@]43C)[C@@H]2C1` the Cmax [1] was 285 ng/mL, the Tmax [2] was 3 h and the half-life [3] was 5.54 h. The AUC(0-t) at 24 h [4] was 2580 ng·h/mL and the AUC(0-inf) [5] was 2720 ng·h/mL.
For `C[C@@H]1C[C@H]2[C@@H]3CCC4=CC(=O)C=C[C@]4(C)[C@@]3(F)[C@@H](O)C[C@]2(C)[C@@]1(O)C(=O)CO` [DEXAMETHASONE], the inhibition at 20 µM (RAW264.7 [7]) was 80.7%, the inhibition at 20 µM (RAW264.7 [8]) was 73.5% and the Activity [43] was “Non-toxic”.
